Measured values taken from patent publication US9540343B2 (Gilead Sciences, Inc., priority 2011, dated 2017).

Legend:
[1] = in vitro
In short: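 Cytoprotection read-out: CellTiter-Glo chemiluminescence after 5 days at 37 °C of HIV-IIIb-infected MT-4 cells (m.o.i. 0.003) with compound in 10-point 3-fold dilutions, quadruplicate, 10% FBS. Cytotoxicity (CC50) measured identically without virus.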

[2] = test system: HIV-IIIb; experiment: Test A: Antiviral assay in MT4 cells; assay type: cell-based, HIV-1; details: Human immunodeficiency virus 1, IIIB, MT4, 120 h, read-out: % inhibition at 2 μM, percent inhibition of virus-induced cell killing, from dose response curve at 2 uM drug; MT-4 cells infected with HIV-IIIb, 5 days, CellTiter-Glo
[3] = human, uninfected MT-4 cells, CC50 (nM), same protocol as Test A, CellTiter-Glo

| SMILES | CC50 at 5 days [1, 3] | inhibition at 2 µM [2] | CC50 at 5 days ([1]; human, CC50 (nM), uninfected MT-4 cells, same protocol as Test A, CellTiter-Glo) |
| --- | --- | --- | --- |
| NC(=O)c1cc(-c2cncnc2[C@H](Cc2cc(F)cc(F)c2)NC(=O)Cn2nc(C(F)F)c3c2C(F)(F)C2CC32)ccc1F (stereo partly drawn) [Example 180, 5-(4-((1S)-1-(2-(3-(difluoromethyl)-5,5-difluoro-3b,4,4a,5-tetrahydro-1H-cyclopropa[3,4]cyclopenta[1,2-c]pyrazol-1-yl)acetamido)-2-(3,5-difluorophenyl)ethyl)pyrimidin-5-yl)-2-fluorobenzamide] | > 50400 nM | 93% | – |
| NC(=O)c1cccc(-c2cccnc2[C@H](Cc2cc(F)cc(F)c2)NC(=O)Cc2ccccc2)c1 [Example 501, (S)-3-(2-(2-(3,5-difluorophenyl)-1-(2-phenylacetamido)ethyl)pyridin-3-yl)benzamide] | 39600 nM | 11% | – |
| NC(=O)c1cc(-c2cccnc2[C@H](Cc2cc(F)cc(F)c2)NC(=O)Cn2nc(C(F)(F)F)c3c2C(=O)C2CC32)ccc1F (stereo partly drawn) [Example 561B, 5-(2-((1S)-2-(3,5-difluorophenyl)-1-(2-(5-oxo-3-(trifluoromethyl)-3b,4,4a,5-tetrahydro-1H-cyclopropa[3,4]cyclopenta[1,2-c]pyrazol-1-yl)acetamido)ethyl)pyridin-3-yl)-2-fluorobenzamide] | 29000 nM | 8% | – |
| Cc1cc2ncn(CC(=O)N[C@@H](Cc3cc(F)cc(F)c3)c3ncccc3-c3cccc(C(N)=O)c3)c2cc1C [Example 278, (S)-3-(2-(2-(3,5-difluorophenyl)-1-(2-(5,6-dimethyl-1H-benzo[d]imidazol-1-yl)acetamido)ethyl)pyridin-3-yl)benzamide] | 8530 nM | 121% | – |
| NC(=O)c1cc(-c2cccnc2[C@H](Cc2cc(F)cc(F)c2)NC(=O)Cn2cc(C=O)c(C(F)(F)F)n2)ccc1F [Example 296, (S)-5-(2-(2-(3,5-difluorophenyl)-1-(2-(4-formyl-3-(trifluoromethyl)-1H-pyrazol-1-yl)acetamido)ethyl)pyridin-3-yl)-2-fluorobenzamide] | 10800 nM | 96% | – |
| O=C(Cc1c[nH]c2ccc(F)cc12)N[C@@H](Cc1cc(F)cc(F)c1)c1ncccc1-c1ccccc1-c1ccccc1 [Example 398, (S)—N-(1-(3-(biphenyl-2-yl)pyridin-2-yl)-2-(3,5-difluorophenyl)ethyl)-2-(5-fluoro-1H-indol-3-yl)acetamide] | 9830 nM | 2% | – |
| NC(=O)c1cc(-c2cccnc2[C@H](Cc2cccc(F)c2)NC(=O)Cn2nc(C(F)(F)F)cc2Br)ccc1F [Example 222B, (S)-5-(2-(1-(2-(5-bromo-3-(trifluoromethyl)-1H-pyrazol-1-yl)acetamido)-2-(3-fluorophenyl)ethyl)pyridin-3-yl)-2-fluorobenzamide] | 25600 nM | 21% | – |
| Cc1cc2cn(CC(=O)N[C@@H](Cc3cc(F)cc(F)c3)c3ncccc3-c3ccc(F)c(C(N)=O)c3)nc2cc1C [Example 583, (S)-5-(2-(2-(3,5-difluorophenyl)-1-(2-(5,6-dimethyl-2H-indazol-2-yl)acetamido)ethyl)pyridin-3-yl)-2-fluorobenzamide] | 23200 nM | 28% | – |
| Cc1cc2ccccc2n1CC(=O)N[C@@H](Cc1cc(F)cc(F)c1)c1ncccc1-c1ccc(F)c(C(N)=O)c1 [Example 367, (S)-5-(2-(2-(3,5-difluorophenyl)-1-(2-(2-methyl-1H-indol-1-yl)acetamido)ethyl)pyridin-3-yl)-2-fluorobenzamide] | 13400 nM | 20% | – |
| NC(=O)c1cc(-c2cccnc2[C@H](Cc2cc(F)cc(F)c2)NC(=O)Cn2nc(C(F)(F)F)c3c2CCCC32CC2)ccc1F [Example 277B, (S)-5-(2-(2-(3,5-difluorophenyl)-1-(2-(3′-(trifluoromethyl)-6′,7′-dihydrospiro[cyclopropane-1,4′-indazole]-1′(5′H)-yl)acetamido)ethyl)pyridin-3-yl)-2-fluorobenzamide] | 19300 nM | 96% | – |
| O=C(Cn1nc(C(F)F)c2c1C(F)(F)C1CC21)N[C@@H](Cc1cc(F)cc(F)c1)c1ncccc1-c1cccc2cnccc12 (stereo partly drawn) [Example 410, (S)—N-(1-(3-(quinole-5-yl)-pyridin-2-yl)-2-(3,5-difluorophenyl)ethyl)-2-(3-(difluoromethyl)-5,6-dihydro-4,5-(methano)-6,6-difluoro-cyclopenta[c]pyrazol-1(4H)-yl)acetamide] | 13700 nM | 103% | – |
| NC(=O)c1cc(-c2cccnc2[C@H](Cc2cc(F)cc(F)c2)NC(=O)Cn2nc(C(F)F)c3c2C(F)C2CC32)ccc1F (stereo partly drawn) [Example 260, 5-(2-((1S)-1-(2-(3-(difluoromethyl)-5-fluoro-3b,4,4a,5-tetrahydro-1H-cyclopropa[3,4]cyclopenta[1,2-c]pyrazol-1-yl)acetamido)-2-(3,5-difluorophenyl)ethyl)pyridin-3-yl)-2-fluorobenzamide] | 28100 nM | 54% | – |
| NC(=O)c1cccc(-c2cccnc2[C@H](Cc2cc(F)cc(F)c2)NC(=O)Cc2c[nH]c3ccc(N)cc23)c1 [Example 560, (S)-3-(2-(1-(2-(5-amino-1H-indol-3-yl)acetamido)-2-(3,5-difluorophenyl)ethyl)pyridin-3-yl)benzamide] | > 53000 nM | 112% | – |
| COc1ccc2c(c1)NC(=O)C2CC(=O)N[C@@H](Cc1cc(F)cc(F)c1)c1ncccc1-c1ccc(F)c(C(N)=O)c1 (stereo partly drawn) [Example 256, 5-(2-((1S)-2-(3,5-difluorophenyl)-1-(2-(6-methoxy-2-oxoindolin-3-yl)acetamido)ethyl)pyridin-3-yl)-2-fluorobenzamide] | > 53200 nM | 15% | – |
| NC(=O)c1cc(-c2cccnc2[C@H](Cc2cc(F)cc(F)c2)NC(=O)[C@@H]2CC[C@H](c3ccccc3)N2)ccc1F [Example 182, (2S,5R)—N—((S)-1-(3-(3-carbamoyl-4-fluorophenyl)pyridin-2-yl)-2-(3,5-difluorophenyl)ethyl)-5-phenylpyrrolidine-2-carboxamide] | 51000 nM | 8% | – |
| Cc1ccccc1-c1cccnc1[C@H](Cc1cc(F)cc(F)c1)NC(=O)Cc1c[nH]c2ccc(F)cc12 [Example 109, (S)—N-(2-(3,5-difluorophenyl)-1-(3-o-tolylpyridin-2-yl)ethyl)-2-(5-fluoro-1H-indol-3-yl)acetamide] | 9080 nM | 50% | – |
| NC(=O)c1cccc(-c2cccnc2[C@H](Cc2cc(F)cc(Cl)c2)NC(=O)Cc2c[nH]c3ccc(O)cc23)c1 [Example 245F, (S)-3-(2-(2-(3-chloro-5-fluorophenyl)-1-(2-(5-hydroxy-1H-indol-3-yl)acetamido)ethyl)pyridin-3-yl)benzamide] | 30300 nM | 71% | – |
| NC(=O)c1cc(-c2cccnc2[C@H](Cc2cc(F)cc(F)c2)NC(=O)Cn2c3c(c4ccccc42)C(=O)CCC3)ccc1F [Example 574D, (S)-5-(2-(2-(3,5-difluorophenyl)-1-(2-(4-oxo-3,4-dihydro-1H-carbazol-9(2H)-yl)acetamido)ethyl)pyridin-3-yl)-2-fluorobenzamide] | – | 24% | 52500 nM |
| NC(=O)c1cccc(-c2cccnc2[C@H](Cc2cc(F)cc(F)c2)NC(=O)Cn2ccc3c(F)cc(F)cc32)c1 [Example 546C, (S)-3-(2-(1-(2-(4,6-difluoro-1H-indol-1-yl)acetamido)-2-(3,5-difluorophenyl)ethyl)pyridin-3-yl)benzamide] | 16800 nM | 15% | – |
| O=C(Cc1c[nH]c2ccc(F)cc12)N[C@@H](Cc1cc(F)cc(F)c1)c1ncccc1-c1ccnc(-c2nn[nH]n2)c1 [Example 302, (S)—N-(1-(2′-(2H-tetrazol-5-yl)-3,4′-bipyridin-2-yl)-2-(3,5-difluorophenyl)ethyl)-2-(5-fluoro-1H-indol-3-yl)acetamide] | 16800 nM | 0% | – |
| O=C(Cc1c[nH]c2ccc(F)cc12)NC(Cc1cc(F)cc(F)c1)c1nccnc1-c1ccc(Cl)cc1 (centres unmarked) [Example 459, N-(1-(3-(4-chlorophenyl)pyrazin-2-yl)-2-(3,5-difluorophenyl)ethyl)-2-(5-fluoro-1H-indol-3-yl)acetamide] | 14200 nM | 28% | – |
| CC(C(=O)N[C@@H](Cc1cc(F)cc(F)c1)c1ncccc1-c1ccc(F)c(C(N)=O)c1)n1ccc(C(F)(F)F)n1 (stereo partly drawn) [Example 507B, 5-(2-((1S)-2-(3,5-difluorophenyl)-1-(2-(3-(trifluoromethyl)-1H-pyrazol-1-yl)propanamido)ethyl)pyridin-3-yl)-2-fluorobenzamide] | > 45300 nM | 22% | – |
| NC(=O)c1cc(-c2cccnc2[C@H](Cc2cc(F)cc(F)c2)NC(=O)Cn2cc(C3=CCCC3)c(C(F)(F)F)n2)ccc1F [Example 355, (S)-5-(2-(1-(2-(4-cyclopentenyl-3-(trifluoromethyl)-1H-pyrazol-1-yl)acetamido)-2-(3,5-difluorophenyl)ethyl)pyridin-3-yl)-2-fluorobenzamide] | 9460 nM | 1% | – |
| COc1ccc(-c2cccnc2[C@H](Cc2ccccc2)NC(=O)Cn2nc(C(F)(F)F)c3c2CCCC3)cc1 [Example 21, (S)—N-(1-(3-(4-methoxyphenyl)pyridin-2-yl)-2-phenylethyl)-2-(3-(trifluoromethyl)-4,5,6,7-tetrahydro-1H-indazol-1-yl)acetamide] | 15500 nM | 28% | – |
| COc1cccc(CC(=O)N[C@@H](Cc2cc(F)cc(F)c2)c2ncccc2-c2cccc(C(N)=O)c2)c1 [Example 601, (S)-3-(2-(2-(3,5-difluorophenyl)-1-(2-(3-methoxyphenyl)acetamido)ethyl)pyridin-3-yl)benzamide] | 41900 nM | 22% | – |
